Patent US20090136517A1, “COMBINED TREATMENT WITH AN EGFR KINASE INHIBITOR AND AN INHIBITOR OF C-KIT” (priority 2007, published 2009)

Assays:
[1] = test system: MO7e human leukemia cells; conditions: cited from earlier work
GEO tumor xenografts = assay: Treatment beyond progression, GEO model; assay type: in vivo, female nu/nu CD-1 mice; conditions: GEO xenografts progressing after 15 days of erlotinib; from time of re-sort; n=8 per group
Description: To run the preclinical treatment beyond progression study GEO cells were harvested from cell culture flasks during exponential cell growth, washed twice with sterile PBS, counted and resuspended in PBS to a suitable concentration before s.c. implantation on the right flank of female nu/nu CD-1 mice. Tumors were established to 200±50 mm^3 in size before randomization into vehicle control or erlotinib treatment groups. […] Each animal was maintained on its designated dosing regimen until its tumor volume from the time of re-sort had doubled.

[2] = test system: H2122 NSCLC tumor xenografts; assay: Growth of H2122 NSCLC tumor xenografts in mice; assay type: in vivo, female nu/nu CD-1 mice; conditions: H2122 xenograft, 14th dosing day, single agent 100 mg/kg oral
Method: (refrigeration) until dosing. […] Resulting drug was kept at 5° C. (refrigeration) until dosing.

[3] = test system: NCI-H292 tumor xenografts; assay: Treatment beyond progression model, NCI-H292 tumor xenografts; assay type: in vivo, female nu/nu CD-1 mice; conditions: H292 xenografts progressing after 32 days of erlotinib; from time of re-sort; n=8 per group
Description: Many patients with NSCLC who initially respond to erlotinib therapy develop progressive disease within a year of treatment. […] The mechanism for this phenomenon is not currently known. To evaluate this a preclinical model of progressive disease was utilized. This model utilizes the NCI-H292 tumor xenografts which initially respond very well to erlotinib treatment.
To run the preclinical treatment beyond progression studies NCI-H292 cells were harvested from cell culture flasks during exponential cell growth, washed twice with sterile PBS, counted and resuspended in PBS to a suitable concentration before s.c. implantation on the right flank of female nu/nu CD-1 mice. Tumors were established to 200±50 mm^3 in size before randomization into vehicle control or erlotinib treatment groups. […] Each animal was maintained on its designated dosing regimen until its tumor volume from the time of re-sort had doubled.

SMILES	GM-CSF stimulated growth of MO7e cells ([1]; GM-CSF stimulated)	apoptosis of MO7e cells ([1]; Kit ligand-stimulated conditions)	Kit ligand-stimulated growth of MO7e cells ([1]; Kit ligand-stimulated)	time to tumor doubling (GEO tumor xenografts)	tumor volume as percent of the initial tumor volume [2]	time to tumor doubling [3]
Cc1ccc(NC(=O)c2ccc(CN3CCN(C)CC3)cc2)cc1Nc1nccc(-c2cccnc2)n1 [Gleevec]	not affected	induces apoptosis	inhibited			
C#Cc1cccc(Nc2ncnc3cc(OCCOC)c(OCCOC)cc23)c1 [erlotinib, [6,7-bis(2-methoxyethoxy)-4-quinazolin-4-yl]-(3-ethynylphenyl) amine]				16.7 days	approximately 250%	19.6 days
O=C(Nc1ccc(OC(F)(F)F)cc1)c1sccc1NCc1ccnc2ccccc12 [OSI-930, 3-[(Quinolin-4-ylmethyl)amino]-N-[4-(trifluoromethoxy)phenyl]thiophene-2-carboxamide]				23.5 days	~120%	30 days
